Experiments:
[1] = system: A. baumannii ATCC 17978 (SEN) and A. baumannii ATCC BAA-1605 (MDR); assay: microbe, parasite or virus in culture; format: cell-based, Acinetobacter baumannii; settings: for MIC: Acinetobacter baumannii, across three biological replicates
Procedure: (§1) This study focused on multiple bacterial strains, as follows. For the FoR and ALE experiments, 2 strains per species were chosen: E. coli ATCC 25922, K. pneumoniae ATCC 10031, A. baumannii ATCC 17978, and P. aeruginosa ATCC BAA-3107 as sensitive (SEN) strains, and E. coli NCTC13846, K. pneumoniae ATCC 700603, A. baumannii ATCC BAA-1605 and P. aeruginosa LESB58 as multi-drug resistant (MDR) strains. Functional metagenomic screens were performed with E. coli ATCC 25922 and K. pneumoniae ATCC 10031 strains. To determine the dose-kill properties of the different antibiotics, an E. coli strain (ATCC 25922) expressing a yellow fluorescent protein (pZS2R, YFP, CHL^R) and a red fluorescent protein (pZS2R, mCherry, CHL^R) was used.
(§2) Unless otherwise indicated, cation-adjusted Mueller-Hinton Broth 2 (MHB, Millipore) medium was used throughout the study, except for SCH79797 (SCH).
(§3) A robotic liquid handling system was used to automatically prepare a 11 to 16-step serial dilution in 384-well microtiter plates (Greiner). A final concentration of 5 × 10^5 bacterial cells per mL were inoculated into each well containing 60 µL MHB medium. Bacterial cultures were incubated at 37 °C with continuous shaking (Infors shaker, 900 rpm with 3 mm throw) for 18 hours (2 replicates from each). Cell growth was monitored by measuring the optical density (OD600 values, using Biotek Synergy microplate reader). MIC was defined as the antibiotic concentration of complete growth inhibition (i.e., OD600 < 0.05). Relative MIC was calculated as follows:1 relativeMIC=MICevolved/MICancestor

[2] = system: P. aeruginosa ATCC BAA-3107 (SEN) and P. aeruginosa LESB58 (MDR); assay: microbe, parasite or virus in culture; format: cell-based, Pseudomonas aeruginosa; settings: for MIC: Pseudomonas aeruginosa, across three biological replicates
Procedure: as §1, §2, §3

[3] = system: K. pneumoniae ATCC 10031 (SEN) and K. pneumoniae ATCC 700603 (MDR); assay: Adaptive laboratory evolution (ALE), relative MIC of evolved lines; format: cell-based, Klebsiella pneumoniae
Source text: Using the same set of bacterial strains, we initiated adaptive laboratory evolution with the aim to maximize the level of antibiotic resistance in the populations achieved during a longer, but fixed time period.
An established protocol for adaptive laboratory evolution[46],[73] was followed to propagate populations with the highest resistance levels. Starting with an antibiotic concentration that caused approximately 50% growth inhibition, ten parallel populations for each antibiotic-ancestor strain combination were grown for 72 hours at 37 °C with continuous shaking (300 RPM). MHB broth medium was used unless stated otherwise. After each incubation, 20 µl of each culture was transferred to four new wells containing fresh medium with increasing antibiotic concentrations (0.5×, 1×, 1.5×, and 2.5× the previous concentration) in a chessboard layout to monitor potential cross-contamination. Growth was monitored by measuring OD600 using a Biotek Synergy 2 microplate reader, and only populations grown in the highest drug concentration with an OD600 > 0.2 were transferred further.
as §3, with “relativeMIC=MICevolved/MICancestor […]” for “relativeMIC=MICevolved/MICancestor”
Supplementary Figure 4. Resistance levels following adaptive laboratory evolution across bacterial strains. The level of resistance was measured as the fold change in relative MIC between evolved and ancestral strains after ~60 days of adaptive laboratory evolution. Data are grouped by bacterial strain (A. baumannii (AB), E. coli (EC), K. pneumoniae (KP), and P. aeruginosa (PA)) and categorized as either multidrug-resistant (MDR) or sensitive (SEN). Each data point represents a laboratory evolved line, and boxplots show the median, first and third quartiles, with whiskers indicating the 5th and 95th percentiles.
Statistical analysis was performed using two-sided Dunn’s post-hoc test with Benjamini-Hochberg correction for multiple comparisons (****/ ***/ **/ * indicates p < 0.0001/ 0.001/ 0.01/ 0.05). For detailed information on antibiotic and bacterial species, see Supplementary Table 1. For mode of action groups, refer to Table 1. Source data are provided as a Source Data file.

[4] = Acinetobacter baumannii ATCC 17978 (AB-SEN), ancestor strain, sheet fig 2a
[5] = Acinetobacter baumannii ATCC 17978 (AB-SEN)
[6] = Acinetobacter baumannii ATCC BAA-1605 (AB-MDR)
[7] = P. aeruginosa ATCC BAA 3107 (PA-SEN), ancestor strain, sheet fig 2a
[8] = PA-SEN, Pseudomonas aeruginosa ATCC BAA 3107, ancestor strain
[9] = ATCCBAA3107, Pseudomonas aeruginosa ATCC BAA-3107 (PA-SEN)
[10] = ATCCBAA3107, Pseudomonas aeruginosa LESB 58 (PA-MDR)
[11] = KP-SEN (Klebsiella pneumoniae ATCC 10031), evolved line 9
[12] = KP-SEN (Klebsiella pneumoniae ATCC 10031), evolved line 10
[13] = KP-SEN, Klebsiella pneumoniae ATCC 10031, evolved line 7
[14] = Klebsiella pneumoniae ATCC 10031 (KP-SEN), evolved line 1
[15] = Klebsiella pneumoniae ATCC 10031 (KP-SEN), evolved line 4

In the case of `CN(C)[C@@H]1C(O)=C(C(N)=O)C(=O)[C@@]2(O)C(O)=C3C(=O)c4c(O)c(NC(=O)CN5CCCC5)cc(F)c4C[C@H]3C[C@@H]12` [Eravacycline], the MIC of ancestor ([1]; Acinetobacter baumannii ATCC 17978 (AB-SEN), ancestor strain) is reported as 0.0625 µg/mL, the MIC of ancestor [1, 4] is reported as 0.0625 µg/mL and the MIC of ancestor ([1]; Acinetobacter baumannii ATCC BAA 1605 (AB-MDR), ancestor strain) is reported as 2 µg/mL. For the same molecule, the MIC of ancestor ([1]; Acinetobacter baumannii ATCC BAA 1605 (AB-MDR), ancestor strain, sheet fig 2a) was 2 µg/mL, the MIC [1, 5] was 0.0625 µg/mL and the MIC [1, 6] was 2 µg/mL. For the same molecule, the MIC of ancestor [2, 7] was 4 µg/mL, the MIC of ancestor [2, 8] was 4 µg/mL and the MIC [2, 9] was 4 µg/mL. The MIC [2, 10] was 32 µg/mL, the “Relative MIC” value ([3]; KP-MDR (ATCC 700603), evolved line 1, MIC of evolved line / MIC of ancestor) was 8 and the “Relative MIC” value ([3]; KP-MDR (ATCC 700603), evolved line 2, MIC of evolved line / MIC of ancestor) was 8. For the same molecule, the “Relative MIC” value ([3]; KP-MDR (ATCC 700603), evolved line 3, MIC of evolved line / MIC of ancestor) was 16, the “Relative MIC” value ([3]; KP-MDR (ATCC 700603), evolved line 4, MIC of evolved line / MIC of ancestor) was 8 and the “Relative MIC” value ([3]; KP-MDR (ATCC 700603), evolved line 5, MIC of evolved line / MIC of ancestor) was 8. The “Relative MIC” value ([3]; KP-MDR (ATCC 700603), evolved line 6, MIC of evolved line / MIC of ancestor) was 8, the “Relative MIC” value ([3]; KP-MDR (ATCC 700603), evolved line 7, MIC of evolved line / MIC of ancestor) was 8 and the “Relative MIC” value ([3]; KP-MDR (ATCC 700603), evolved line 8, MIC of evolved line / MIC of ancestor) was 16. For the same molecule, the “Relative MIC” value ([3]; KP-MDR (ATCC 700603), evolved line 9, MIC of evolved line / MIC of ancestor) was 8, the “Relative MIC” value ([3]; KP-MDR (ATCC 700603), evolved line 10, MIC of evolved line / MIC of ancestor) was 8 and the “Relative MIC (log10)” value ([3]; KP-MDR (Klebsiella pneumoniae ATCC 700603), evolved line 1 adapted to the named antibiotic) was 0.9031. For the same molecule, the “Relative MIC (log10)” value ([3]; KP-MDR (Klebsiella pneumoniae ATCC 700603), evolved line 3 adapted to the named antibiotic) was 1.204, the “Relative MIC (log10)” value ([3]; KP-MDR (Klebsiella pneumoniae ATCC 700603), evolved line 4 adapted to the named antibiotic) was 0.9031 and the “Relative MIC (log10)” value ([3]; KP-MDR (Klebsiella pneumoniae ATCC 700603), evolved line 8 adapted to the named antibiotic) was 1.204. The “Relative MIC (log10)” value ([3]; KP-MDR (Klebsiella pneumoniae ATCC 700603), evolved line 9 adapted to the named antibiotic) was 0.9031, the “Relative MIC” value ([3]; KP-SEN (ATCC 10031), evolved line 1, evolved vs ancestor) was 512 and the “Relative MIC” value ([3]; KP-SEN (ATCC 10031), evolved line 3, evolved vs ancestor) was 256. For the same molecule, the “Relative MIC” value ([3]; KP-SEN (ATCC 10031), evolved line 4, evolved vs ancestor) was 64, the “Relative MIC” value ([3]; KP-SEN (ATCC 10031), evolved line 7, evolved vs ancestor) was 64 and the “Relative MIC” value ([3]; KP-SEN (ATCC 10031), evolved line 9, evolved vs ancestor) was 256. The “Relative MIC” value ([3]; KP-SEN (ATCC 10031), evolved line 10, evolved vs ancestor) was 512, the “Relative MIC (log10)” value ([3]; KP-SEN (Klebsiella pneumoniae ATCC 10031), evolved line 1) was 2.709 log10 and the “Relative MIC (log10)” value ([3]; KP-SEN (Klebsiella pneumoniae ATCC 10031), evolved line 3) was 2.408 log10. The “Relative MIC (log10)” value [3, 11] was 2.408 log10, the “Relative MIC (log10)” value [3, 12] was 2.709 log10 and the “Relative MIC (log10)” value [3, 13] was 1.806 log10. The “Relative MIC” value [3, 14] was 512, the “Relative MIC” value ([3]; Klebsiella pneumoniae ATCC 10031 (KP-SEN), evolved line 3) was 256 and the “Relative MIC” value [3, 15] was 64. For the same molecule, the “Relative MIC” value ([3]; Klebsiella pneumoniae ATCC 10031 (KP-SEN), evolved line 7) was 64, the “Relative MIC” value ([3]; Klebsiella pneumoniae ATCC 10031 (KP-SEN), evolved line 9) was 256 and the “Relative MIC” value ([3]; Klebsiella pneumoniae ATCC 10031 (KP-SEN), evolved line 10) was 512. For the same molecule, the “Relative MIC” value ([3]; Klebsiella pneumoniae ATCC 700603 (KP-MDR), evolved line 1) was 8, the “Relative MIC” value ([3]; Klebsiella pneumoniae ATCC 700603 (KP-MDR), evolved line 2) was 8 and the “Relative MIC” value ([3]; Klebsiella pneumoniae ATCC 700603 (KP-MDR), evolved line 3) was 16. The “Relative MIC” value ([3]; Klebsiella pneumoniae ATCC 700603 (KP-MDR), evolved line 4) was 8, the “Relative MIC” value ([3]; Klebsiella pneumoniae ATCC 700603 (KP-MDR), evolved line 5) was 8 and the “Relative MIC” value ([3]; Klebsiella pneumoniae ATCC 700603 (KP-MDR), evolved line 6) was 8. For the same molecule, the “Relative MIC” value ([3]; Klebsiella pneumoniae ATCC 700603 (KP-MDR), evolved line 7) was 8, the “Relative MIC” value ([3]; Klebsiella pneumoniae ATCC 700603 (KP-MDR), evolved line 8) was 16 and the “Relative MIC” value ([3]; Klebsiella pneumoniae ATCC 700603 (KP-MDR), evolved line 9) was 8. The “Relative MIC” value ([3]; Klebsiella pneumoniae ATCC 700603 (KP-MDR), evolved line 10) was 8.
For `CNC(C)C1CCC(N)C(OC2C(N)CC(N)C(OC3OCC(C)(O)C(NC)C3O)C2O)O1` (centres unmarked) [Gentamicin], the MIC of ancestor ([1]; AB-SEN, Acinetobacter baumannii ATCC 17978, ancestor strain) was 0.5 µg/mL, the MIC of ancestor [1, 4] was 0.5 µg/mL and the MIC [1, 5] was 0.5 µg/mL. The MIC [1, 6] was greater than 32 µg/mL, the MIC of ancestor [2, 7] was 1 µg/mL and the MIC of ancestor [2, 8] was 1 µg/mL. The MIC [2, 9] was 1 µg/mL, the MIC [2, 10] was greater than 32 µg/mL and the “Relative MIC (log10)” value ([3]; KP-SEN (Klebsiella pneumoniae ATCC 10031), evolved line 2 adapted to the named antibiotic) was 2.107. The “Relative MIC (log10)” value ([3]; KP-SEN (Klebsiella pneumoniae ATCC 10031), evolved line 4 adapted to the named antibiotic) was 1.806, the “Relative MIC (log10)” value ([3]; KP-SEN (Klebsiella pneumoniae ATCC 10031), evolved line 5 adapted to the named antibiotic) was 1.806 and the “Relative MIC” value ([3]; KP-SEN (Klebsiella pneumoniae ATCC 10031), evolved line 6) was 64. The “Relative MIC (log10)” value ([3]; KP-SEN (Klebsiella pneumoniae ATCC 10031), evolved line 6 adapted to the named antibiotic) was 1.806, the “Relative MIC” value ([3]; KP-SEN (Klebsiella pneumoniae ATCC 10031), evolved line 8) was 128 and the “Relative MIC (log10)” value ([3]; KP-SEN (Klebsiella pneumoniae ATCC 10031), evolved line 8 adapted to the named antibiotic) was 2.107. For the same molecule, the “Relative MIC” value [3, 11] was 128, the “Relative MIC” value [3, 12] was 128 and the “Relative MIC” value ([3]; KP-SEN, Klebsiella pneumoniae ATCC 10031, evolved line 1 versus ancestor) was 64. For the same molecule, the “Relative MIC” value ([3]; KP-SEN, Klebsiella pneumoniae ATCC 10031, evolved line 2 versus ancestor) was 128, the “Relative MIC” value ([3]; KP-SEN, Klebsiella pneumoniae ATCC 10031, evolved line 4 versus ancestor) was 64 and the “Relative MIC” value ([3]; KP-SEN, Klebsiella pneumoniae ATCC 10031, evolved line 5 versus ancestor) was 64. The “Relative MIC” value ([3]; KP-SEN, Klebsiella pneumoniae ATCC 10031, evolved line 6 versus ancestor) was 64, the “Relative MIC” value ([3]; KP-SEN, Klebsiella pneumoniae ATCC 10031, evolved line 7 versus ancestor) was 64 and the “Relative MIC” value ([3]; KP-SEN, Klebsiella pneumoniae ATCC 10031, evolved line 8 versus ancestor) was 128. For the same molecule, the “Relative MIC” value ([3]; KP-SEN, Klebsiella pneumoniae ATCC 10031, evolved line 9 versus ancestor) was 128, the “Relative MIC” value ([3]; KP-SEN, Klebsiella pneumoniae ATCC 10031, evolved line 10 versus ancestor) was 128 and the “Relative MIC” value ([3]; KP-SEN, Klebsiella pneumoniae ATCC 10031, evolved line 5) was 64. The “Relative MIC” value [3, 13] was 64, the “Relative MIC” value [3, 14] was 64 and the “Relative MIC” value ([3]; Klebsiella pneumoniae ATCC 10031 (KP-SEN), evolved line 2) was 128. The “Relative MIC” value [3, 15] was 64.

From PMC11845477, “Exploring the principles behind antibiotics with limited resistance” (Nature Communications, 2025)
